The text below walks through data of US7989482B2, “Indoline anti-cancer agents” (Joyant Pharmaceuticals, Inc., priority 2008, dated 2011).

Type in all cases: cell-based
Assay [1] deals with A2058 cells. Briefly: Cell viability assay (CELL-TITER-GLO) in A2058 cells. Particulars: Homo sapiens.
In assay [2] the test system is BxPC3. Nature of the assay: Cell profiling, BxPC3 tumor cell line. The following applies: Homo sapiens, BXPC-3; Tumor cell line BxPC3, origin Pancreas. As for the experimental part:
(§1) Cell viability assays were run using standard protocols known to those of skill in art. Cells were plated in 96 well plates at the density of 3,000-10,000 cells per well. Twenty four hours later, cells were treated with increasing concentration of test compounds (1 nM to 1 μM). After another 48 hour, cell survival was measured using CELL-TITER-GLO® reagent (Promega) following the protocol provided by the manufacture. The IC50 value was determined as the concentration of test compound that kills 50% of the cell population.
(§2) The compound of Example 46 was profiled in tumor cell lines derived from a variety of origins.

For assay [3], the system named is BT474. Nature of the assay: Cell profiling, BT474 tumor cell line. The following applies: Homo sapiens, BT-474; Tumor cell line BT474, origin Breast. As for the experimental part: as §1, §2
Assay [4] deals with COLO205. Briefly: Cell profiling, COLO205 tumor cell line. Particulars: Homo sapiens, COLO 205; Tumor cell line COLO205, origin Colon. As for the experimental part: as §1, §2
The subject of assay [5] is DU145. Briefly: Cell profiling, DU145 tumor cell line. The following applies: Homo sapiens, DU-145; Tumor cell line DU145, origin Prostate. As for the experimental part: as §1, §2
Assay [6] has as its system HT29. Nature of the assay: Cell profiling, HT29 tumor cell line. The following applies: Homo sapiens, HT-29; Tumor cell line HT29, origin Colon. As for the experimental part: as §1, §2
Assay [7] concerns A375. Briefly: Cell profiling, A375 tumor cell line. The following applies: Homo sapiens, A-375; Tumor cell line A375, origin Skin. As for the experimental part: as §1, §2
Assay [8] relates to U937 cells. Nature of the assay: Cell viability assay (CELL-TITER-GLO) in U937 cells. The following applies: Homo sapiens.
The subject of assay [9] is HCC1437. Nature of the assay: Cell profiling, HCC1437 tumor cell line. Particulars: Tumor cell line HCC1437, origin Lung. As for the experimental part:
as §1, §2

The subject of assay [10] is HCC461. Briefly: Cell profiling, HCC461 tumor cell line. Particulars: Tumor cell line HCC461, origin Lung. As for the experimental part: as §1, §2
Assay [11] concerns NCI-H460. Nature of the assay: Cell profiling, NCI-H460 tumor cell line. The following applies: Homo sapiens; Tumor cell line NCI-H460, origin Lung. As for the experimental part: as §1, §2
Assay [12] has as its system OVCAR 3. Briefly: Cell profiling, OVCAR 3 tumor cell line. Particulars: Homo sapiens; Tumor cell line OVCAR 3, origin Ovarian. As for the experimental part: as §1, §2
The test system of assay [13] is HCT116. Briefly: Cell profiling, HCT116 tumor cell line. The following applies: Homo sapiens, HCT-116; Tumor cell line HCT116, origin Colon. As for the experimental part: as §1, §2
In assay [14] the test system is LOVO. Nature of the assay: Cell profiling, LOVO tumor cell line. The following applies: Homo sapiens, origin Colon. As for the experimental part:
as §1, §2

Each structure is given as a SMILES string. Like-named read-outs stand apart in the source and are kept apart here.

Usually IC50 stands for the concentration that gives 50% inhibition.

As for `COC(=O)c1coc(-c2nc3oc2C24c5ccccc5N[C@H]2Oc2ccc(cc24)C[C@H](NC(=O)[C@@H](O)C(C)C)C(=O)N[C@H]3C(C)C)n1` (stereo partly shown) [Example 46], the concentration for half-maximal inhibition (IC50) in assay [1] (A2058, 48 h, A2058 cells, 48 hour treatment, cell viability, read-out: IC50 (μM) A2058) came out at 0.044 µM; in assay [1] (A2058, Tumor cell line A2058, origin Skin, read-out: IC50), 0.044 µM; in [2], 23 nM; in assay [3], 6 nM; in assay [4] it was 147 nM; in assay [5] it was 67 nM. Besides, the half-inhibitory concentration (IC50) in assay [6] was 90 nM; in [7], 99 nM; in assay [8] (U-937, 48 h, U937 cells, 48 hour treatment, cell viability, read-out: IC50 (μM) U937), 0.013 µM; in [8] (U-937, Tumor cell line U937, origin Blood, read-out: IC50), 0.013 µM; in assay [9], 63 nM; in [10], 344 nM. In addition, the half-maximal inhibitory concentration (IC50) was 245 nM in assay [11], 32 nM in assay [12], 731 nM in [13] and 148 nM in [14].
